The subject of experiment [1] is rats with hyperuricemia. As to the kind of experiment: Blood uric acid level in rats with adenine combined with ethambutol-induced hyperuricemia. Type of experiment: in vivo, rat. The settings on record: for Blood uric acid: serum, mean±SD, model group 144.43 ± 31.20. As for the experimental part:
There were 48 Male SPF grade SD rats, weighing 200-220 g, purchased from Beijing Vital River Laboratory Animal Technology Co., Ltd., license No. SCXK (Beijing) 2016-0006. The animals were housed in a barrier environment animal laboratory, with automatic temperature control (temperature 20-26° C.), relative humidity 40-70%, and full fresh air. Artificial light was adopted with a 12-hour light-dark cycle. Group experiments were started after 1 day of acclimatization. Animals were fed with standard rat pellet feed, provided by Beijing Keao Xieli Feed Co. Ltd., with purified water.
The rats were randomly divided into 6 groups of 8 rats each, which were control group, model group, typhaneoside low dose group (25 mg/kg) and typhaneoside high dose group (50 mg/kg), isorhamnetin low dose group (25 mg/kg) and isorhamnetin high dose group (50 mg/kg).
Adenine was purchased from Sigma-Aldrich (USA), and 0.5% CMC-Na was used to formulate adenine into a suspension at a concentration of 20 mg/mL, ready-to-use, with an administration volume of 5 mL/kg and a dosage of 100 mg/kg. Ethambutol hydrochloride tablets were purchased from Chengdu Jinhua Pharmaceutical Co., Ltd, and 0.5% CMC-Na was used to formulate ethambutol hydrochloride tablets into a suspension at a concentration of 50 mg/ml, ready-to-use, with an administration volume of 5 mL/kg and a dosage of 250 mg/kg. […]
Observation and detection indicators: fasting for 16 hours after the last administration, blood was collected from the abdominal aorta of rats in each group, centrifuged at 3500 rpm for 15 minutes after standing, separated and collected serum, and the content of uric acid in the serum was measured using an Automatic Chemical Analysis.
Statistical methods: data were expressed as mean±standard deviation (x±S) and analyzed by one-way ANOVA. […]

In experiment [2] the test system is rats with hyperuricemic kidney injury. Briefly: Kidney function biochemical indicators (serum BUN, SCr) in rats with hyperuricemic kidney injury. Type of experiment: in vivo, rat. The settings on record: for BUN / SCr: serum; for BUN: model group 11.87 ± 2.27; for SCr: model group 49.09 ± 9.42. An excerpt: (§1) The establishment of the model as well as the experimental grouping and administration were the same as in Example 1.
(1) Kidney function biochemical indicators detection: the method of blood sampling and serum collection was the same as in Example 1, and an Automatic Chemical Analysis was used to detect the content of serum creatinine (SCr) by using the creatine oxidase method, and to detect the content of blood urea nitrogen (BUN) by using the urease method and the kinetic method.

Experiment [3] concerns rats with hyperuricemia. Briefly: Urate deposition in rat kidney tissues, hexamine silver staining. Format: in vivo. The settings on record: FIG. 1, hexamine silver staining, 25 and 50 mg/kg, in words. As for the experimental part:
as §1
(§2) (2) Pathological examination of kidney tissue: anesthetize rats, dissect, and remove kidney tissue. The kidney tissues were fixed with 10% neutral formalin. After sufficient fixation, sampling, gradient dehydration, xylene transparency, paraffin embedding, and preparation of 3 μm paraffin sections were performed according to routine procedures. The kidney tissue lesions as well as urate deposition in the kidney tissues were examined by light microscopy using HE (hematoxylin & eosin) staining and hexamine silver staining, respectively.

Experiment [4] deals with rats with hyperuricemia. As to the kind of experiment: Pathological examination of rat kidney tissue, HE staining. Conditions: FIG. 2, HE staining, in words. Type of experiment: in vivo. As for the experimental part: as §1, §2
The mark [5] stands for this setting: high dose 50 mg/kg by gavage once a day for 7 days.
Where [6] appears, read: low dose 25 mg/kg by gavage once a day for 7 days.

Each structure is given as a SMILES string.

As for `COc1cc(-c2oc3cc(O)cc(O)c3c(=O)c2O)ccc1O` [Isorhamnetin, isorhamnetin], the “Effect on the blood uric acid level compared with the model group” value in the experiment with rats with hyperuricemia [1] (different doses (25 and 50 mg/kg), in words) is reported as “did not show a significant reducing effect”. The Blood uric acid with rats with hyperuricemia [1] (setting [5]) amounted to 105.74 ± 42.62 µmol/L; with rats with hyperuricemia [1] (setting [6]), 118.56 ± 26.76 µmol/L. Also, in experiment [2] (25 and 50 mg/kg, in words), the “Serum BUN level compared with the model group” value is “did not show significant reduction”. The “Serum SCr level compared with the model group” value in experiment [2] (25 and 50 mg/kg, in words) was “did not show significant reduction”. Besides, the BUN in experiment [2] (setting [5]) was 8.26 ± 3.99 mmol/L; in experiment [2] (setting [6]) it was 7.90 ± 2.48 mmol/L. Moreover, the figures for the SCr in experiment [2] (setting [5]) and in experiment [2] (setting [6]) were 47.12 ± 12.00 µmol/L and 41.66 ± 5.72 µmol/L, respectively. Further, the “Deposited urate crystals in kidney tissue compared with the model group” value in the experiment on rats with hyperuricemia [3] is “only slightly reduced”. Further, the “Kidney tissue pathological changes” value was “severe renal tubular dilatation and epithelial cell detachment were still observed” with rats with hyperuricemia [4] (high dose group 50 mg/kg); “severe renal tubular dilatation and epithelial cell detachment were still observed” in the experiment on rats with hyperuricemia [4] (low dose group 25 mg/kg).

(Values after US20240358733A1, “APPLICATION OF TYPHANEOSIDE IN PREPARATION OF MEDICINE FOR URIC ACID-LOWERING AND/OR KIDNEY INJURY” (Institute of Chinese Materia Medica, China Academy of …, priority 2023, published 2024).)
